Consider eight compounds from patent US7569554B2, “Synergistic treatment of cancer using immunomers in conjunction with therapeutic agents” (Idera Pharmaceuticals, Inc., priority 2003, dated 2009).

The subject of data set [1] is human prostate cancer PC3 xenografts. Description: Tumor mass, human prostate cancer PC3 xenografts in nude mice, with Gemcitabine. It is filed as in vivo, mouse. Conditions: 160 mg/kg. The protocol: (§1) PC3 cells were cultured in 90% Ham's, F12K Medium with 10% Fetal Bovine Serum (FBS), in presence of 100 U/ml Penicillin and 100 μg/ml Streptomycin to establish the Human Prostate cancer model (PC3). Male athymic nude mice, 4-6 weeks old (Frederick Cancer Research and Development Center, Frederick, Md.), were accommodated for 6 days for environmental adjustment prior to the study. Cultured PC3 cells were harvested from the monolayer cultures, washed twice with Ham's, F12K Medium (10% FBS), resuspended in FBS-free Ham's, F12K Medium: Matrigel basement membrane matrix (Becton Dickinson Labware, Bedford, Mass.) (5:1; V/V), and injected subcutaneously (5×10^6 cells, total volume 0.2 ml) into the left inguinal area of each of the mice. The animals were monitored by general clinical observation, body weight, and tumor growth. Tumor growth was monitored by the measurement, with calipers, of two perpendicular diameters of the implant. Tumor mass (weight in grams) was calculated by the formula, 1/2a X b^2, where ‘a’ is the long diameter (cm) and ‘b’ is the short diameter (cm). When the mean tumor sizes reached ˜80 mg, the animals bearing human cancer xenografts were randomly divided into the treatment and control groups (5 animals/group). The control group received sterile physiological saline (0.9% NaCl) only. Immunomer 255 or 285, aseptically dissolved in physiological saline, was administered by subcutaneously injection at dose of 0.5 or 1.0 mg/kg/day, 3 doses/week. […] The detailed treatment schedule is shown as follows.
(In xenograft studies the graft and the host belong to different species.)

The nature of data set [2]: Body weight and clinical observation of PC3 tumor-bearing nude mice. It is filed as in vivo, mouse. The settings on record: compared with controls.
The subject of data set [3] is BALB/c mouse spleen cells. Description: Cytokine secretion in BALB/c mouse spleen cell cultures (sandwich ELISA). The settings on record: for Induction of IL-12: FIG. 7A; for Induction of IL-12 / Induction of IL-6: compared with Oligo 1; for Induction of IL-6: FIG. 7B. It is filed as cell-based. The protocol:
(§2) The secretion of IL-12 and IL-6 in vertebrate cells, preferably BALB/c mouse spleen cells or human PBMC, was measured by sandwich ELISA. The required reagents including cytokine antibodies and cytokine standards were purchased form PharMingen, San Diego, Calif. ELISA plates (Costar) were incubated with appropriate antibodies at 5 μg/mL in PBSN buffer (PBS/0.05% sodium azide, pH 9.6) overnight at 4° C. and then blocked with PBS/i % BSA at 37° C. for 30 minutes. Cell culture supernatants and cytokine standards were appropriately diluted with PBS/10% FBS, added to the plates in triplicate, and incubated at 25° C. for 2 hours. Plates were overlaid with 1 μg/mL appropriate biotinylated antibody and incubated at 25° C. for 1.5 hours. The plates were then washed extensively with PBS-T Buffer (PBS/0.05% Tween 20) and further incubated at 25° C. for 1.5 hours after adding streptavidin conjugated peroxidase (Sigma, St. Louis, Mo.). The plates were developed with Sure Blue™ (Kirkegaard and Perry) chromogenic reagent and the reaction was terminated by adding Stop Solution (Kirkegaard and Perry). The color change was measured on a Ceres 900 HDI Spectrophotometer (Bio-Tek Instruments).
(§3) In all instances, the levels of IL-12 and IL-6 in the cell culture supernatants were calculated from the standard curve constructed under the same experimental conditions for IL-112 and IL-6, respectively. The levels of IL-10, IFN-gamma and TNF-α in the cell culture supernatants were calculated from the standard curve constructed under the same experimental conditions for IL-10, IFN-gamma and TNF-α, respectively.

For data set [4], the system named is Her-2 positive BT-474 cells. Description: Lysis of BT-474 cells by IMO-activated human PBMCs in the presence of Herceptin. The format is cell-based. Conditions: FIG. 26.
Data set [5] relates to BALB/c mice. Description: In vivo serum cytokine induction. The settings on record: for IL-6 (serum) / IL-12 (serum): 10 mg/kg, 4 hrs. Also on record: species or system mouse. The protocol: To assess serum cytokine levels, BALB/c mice (n=5) were injected intraperitoneally (i.p), subcutaneously (s.c) or intramuscularly (i.m) with IMO compounds at 10 mg/kg (single dose). Sera was collected by retro-orbital bleeding at 4 hrs of IMO administration and determined IL-112 and IL-6 by sandwich ELISA. Cytokine antibodies and standards were purchased from PharMingen (San Diego, Calif.).
To evaluate the immunopharmacological effects in vivo, IMO compounds, CpG immunomers, and non-CpG oligos were administered to BALB/c mice i.p, s.c or i.m at a dose of 10 mg/kg and their serum was evaluated for IL-12 and IL-6 after 4 hrs.

The test system of data set [6] is CT26.CL25 colon tumor. The data set can be described thus: Subcutaneous CT26.CL25 colon tumor in BALB/c mice. The format is in vivo, mouse. The method, then: For subcutaneous solid tumor models, 10^6 CT26.CL25 cells/mouse or 5×10^5 B16.F0 cells/mouse in 100 μl of PBS were implanted into BALB/c or C57BL/6 mice in the lower right flank. The tumor size reached to 50 to 200 mg on day 6 for CT26.CL25 and on day 8 for B16.F0 post tumor inoculation. The tumor bearing mice were then treated with peritumoral injection of IMO compounds or non-CpG DNA control at a dose of 1 mg/kg every other day for 10 times. Tumor growth was recorded with the use of calipers, by measuring the long and short diameters of the tumor. Tumor volumes were measured with a caliper and the formula (0.5×length×width^2) was applied to determine tumor growth kinetics.
The antitumor activity of IMO compounds in a murine colon carcinoma CT26.CL25 model was evaluated. BALB/c mice bearing CT26.CL25 subcutaneous solid tumors were treated with 1 mg/kg IMO compounds by peritumoral administration every other day for 10 times starting on day 6 following tumor inoculation.

Data set [7] relates to vertebrate cells, preferably BALB/c mouse spleen cells or human PBMC. The data set can be described thus: Immunostimulatory activity, IL-12/IL-6 secretion (Tables 9-12, cell culture not given). It is filed as cell-based. The protocol:
as §2, §3

Data set [8] relates to 4T1 breast tumor. Description: 4T1 breast tumor in BALB/c mice, combination with doxorubicin. The format is in vivo, mouse. Conditions: IMO 2 1 mg/kg peritumoral, doxorubicin 30 mg/kg i.p; FIG. 24A. The protocol:
For the 4T1 tumor models, 5×10^5 cells/mouse in. 100 μl PBS were implanted into BALB/c mice in the lower right flank. On day 5 when the average tumor size reached 50 mm^2, the mice were given i.p injections of 30 mg/kg doxorubicin (Bedford lab, Bedford, Ohio) for three times on days 5, 6 and 7. IMO 2 (1 mg/kg) dissolved in 100 μl PBS was administrated by peritumoral injection at twice a week interval for a total of six times.

Data set [9] concerns CD69+ and CD86+ cells. The data set can be described thus: Activation of CD69+ and CD86+ cells in peripheral blood. The format is in vivo, mouse. The settings on record: docetaxel 30 mg/kg days 1 and 3, IMO 2 5 mg/kg days 1, 3, 5, 7; FIG. 24C.
Data set [10] has as its system human prostate cancer PC3 xenografts. The data set can be described thus: PC3 xenograft experiment repeated with taxotere. The format is in vivo, mouse. The arrangement: unit: mg. Conditions: 15 mg/kg. The protocol: as §1
Taxotere was administered on days 0 and 7. Immunomer 165 was administered 5 days per week. Immunomers 255 and 285 were administered on days 0, 2, 4, 7, 9 and 11.

Data set [11] is described as follows: In vitro cytokine induction profiles of IMO compounds (FIG. 16). It is filed as cell-based.

Where a name gives a salt, the structure may show the parent alone.

Regarding `Nc1ccn([C@@H]2O[C@H](CO)[C@@H](O)C2(F)F)c(=O)n1` [Gemcitabine, Gemcitabine HCl], the Tumor mass is reported as 82.6 mg in data set [1] (Day 0); 73.0 mg in data set [1] (Day 3); 35.7 mg in [1] (Day 9); 36.2 mg in data set [1] (Day 12); 31.7 mg in [1] (Day 15); 40.8 mg in data set [1] (Day 18). Also, the Tumor mass came to 56.5 mg in data set [1] (Day 24); 68.0 mg in data set [1] (Day 27); 89.4 mg in data set [1] (Day 30); 106.5 mg in data set [1] (Day 33); 144.2 mg in [1] (Day 36); 175.3 mg in data set [1] (Day 39). Further, the Tumor mass in data set [1] (Day 42) was 269.1 mg; in data set [1] (Day 45), 383.8 mg; in [1] (Day 48) it was 538.6 mg. The Body weight gains result in data set [2] was “body weight loss in the first week and recovered in a week afterwards”.
On to “3′-TTCCAGCTCGCAAGAG-5′-5′-GAGAACGCTCGACCTT-3′ [Immunomer 3]”, for which, in data set [3], the “Induction of IL-12” value is listed as “equal or weaker ability to produce immune stimulation compared with oligo 1” and the “Induction of IL-6” value is recorded as “equal or weaker ability to induce immune stimulation compared with Oligo 1”.
With “IMO 3: IMO compound of FIG. 15 (SEQ ID NO 18) containing a human-specific motif (DNA TCTGTCNTTCT; listed as DNA, further chemistry not given here)”, the “Lysis of BT-474 cells” value in data set [4] is given as “induces lysis of Her-2 positive BT-474 cells in the presence of Herceptin”. The “Serum IL-12 secretion in mice” value in data set [5] (4 hr after administration, FIG. 25B) is listed as “induced IL-12 secretion”. For the same compound, the Antitumor activity result in data set [6] (FIG. 25A) is listed as “potent antitumor activity”.
Regarding “5′-CTATCTGACGTTCTCTGT-3′ (DNA, all phosphorothioate, methylation of C not given here) [Oligonucleotide 4]”, the IL-12 in [3] (0.3 μg/mL, Table 13) was found to be 225 pg/mL; in [7] (0.3 μg/mL, Table 12) it was 257 pg/mL; in data set [7] (3 μg/mL, Table 11), 1176 pg/mL. Also, the IL-6 was determined as 1462 pg/mL in [3] (1 μg/mL, Table 13); 635 pg/mL in [7] (1 μg/mL, Table 12); 1892 pg/mL in data set [7] (3 μg/mL, Table 11).
For the compound `COc1cccc2c1C(=O)c1c(O)c3c(c(O)c1C2=O)C[C@@](O)(C(=O)CO)C[C@@H]3O[C@H]1C[C@H](N)[C@H](O)[C@H](C)O1` [doxorubicin, reference compound], the “Inhibition of 4T1 tumor growth” value in [8] was “strong inhibition”.
As for `CC(=O)O[C@@]12CO[C@@H]1C[C@H](O)[C@@]1(C)C(=O)[C@H](O)C3=C(C)[C@@H](OC(=O)[C@H](O)[C@@H](NC(=O)OC(C)(C)C)c4ccccc4)C[C@@](O)([C@@H](OC(=O)c4ccccc4)[C@H]21)C3(C)C` [Taxotere, Docetaxel], the “Percentage of CD69+ and CD86+ cells” value in data set [9] is “did not inhibit such activations”. Further, the “In vivo anti-cancer activity (tumor mass)” value was 56.64 in [10] (Day 0.00); 128.51 in data set [10] (Day 3.00); 320.63 in data set [10] (Day 6.00); 598.69 in data set [10] (Day 9.00); 924.91 in [10] (Day 12.00); 1589.08 in [10] (Day 15.00).
As to “5-GAGAACGCTCGACCTT-3′-3′-TTCCAGCTCGCAAGAG-5′ [Immunomer 2]”, in data set [3], the “Induction of IL-12” value is “stronger inducer of IL-12 than monomeric Oligo 1” and the “Induction of IL-6” value is recorded as “stronger inducer of IL-6 than monomeric Oligo 1”. Besides, the “Elevation of IL-12, IL-6 and IL-10” value in data set [3] (FIGS. 7A-C) is “elevates IL-12 and IL-6, but not IL-10 at lower concentrations than Oligonucleotides 1 or 3”.
For the compound “IMO 1: IMO compound of FIG. 15, first in order (SEQ ID NO 13) (DNA TCTGACGTTCT; listed as DNA, chemistry not given here)”, the “IL-12 secretion in vitro” value in data set [11] was “strong IL-12 secretion”. The figures for the “IL-6 (serum)” value in data set [5] (Intramuscular (i.m)), in [5] (Intraperitoneal (i.p)) and in data set [5] (Subcutaneous (s.c)) were 5.8 ± 0.5 ng/mL, 5.9 ± 0.2 ng/mL and 4.3 ± 0.3 ng/mL, respectively. In addition, the “IL-12 (serum)” value in data set [5] (Intramuscular (i.m)) amounted to 109.3 ± 25 ng/mL; in data set [5] (Intraperitoneal (i.p)), 59.0 ± 11 ng/mL; in data set [5] (Subcutaneous (s.c)), 98.3 ± 15 ng/mL. Also, in data set [6] (day 24, compared with non-CpG DNA treated mice, 1 mg/kg peritumoral), the “Average tumor growth inhibition” value was determined as 72%.
